Measured values taken from US4642332A, “Effective hormonal peptides: D-3-Pal^6 -LHRH” (The Board of Regents, The University of Texas System, priority 1985, dated 1987).

Tests used:
[1] = tested on: 21 day old female rats; test: In vivo assay in rats for release of LH and FSH; parameters: species or system rat; details: for Serum FSH ng/ml SEM / Serum LH ng/ml SEM: Table IX, blood sample at ±60 minutes; for Serum FSH ng/ml SEM / Serum LH ng/ml SEM / FSH ng/ml Serum ± SEM at +120 min / LH ng/ml Serum ± SEM at +120 min: mean of 6; for FSH ng/ml Serum ± SEM at +120 min / LH ng/ml Serum ± SEM at +120 min: Table X; for +2 hrs LH ± SEM ng/ml serum / FSH ± SEM ng/ml serum (+2 hrs) / +3 hrs LH ± SEM ng/ml serum / FSH ± SEM ng/ml serum (+3 hrs): Table XI, 150 ng sc, mean 5-6
Experimental: In vivo rat assay performed by a modification of the method of Bowers, C. Y. et al. Endocrinology, 106, 674 (1980). 21 day old female rats were injected sc with saline or peptide. Blood samples for the RIAs of LH and FSH were collected at +15, +60, +120, or +180 minutes. (Tables VI-XI).

[2] = tested on: pituitary cells from 21 day old rats; test: In vitro pituitary incubate assay (release of LH and FSH); assay type: cell-based, rat; details: mean of 9
Experimental: The data in Tables IV and V are from the in vitro assay of the peptides with the pituitary incubate. This assay measures the release of LH and FSH in an in vitro system with pituitary cells from 21 day old rats. See, Bowers, C. Y. et al. on the inhibitory effects of leutinizing hormone releasing hormone analogs. Endocrinology, 106: 674 (1980).
The abbreviations are as follows: sc-subcutaneous, SEM-standard error of the mean; NS-not significant; ng-nanogram, and ml-milliliter. The p value represents the population coefficient .rho.(rho) which signifies whether a sample coefficient is significant or a chance deviation from zero.

[3] = Table IV, dosage 0.03 ng/ml medium
[4] = Table IV, dosage 0.1 ng/ml medium
[5] = Table IV, dosage 0.3 ng/ml medium
[6] = Table IV, dosage 1.0 ng/ml medium
[7] = Table V, dosage .03 ng/ml medium
[8] = Table V, dosage .10 ng/ml medium
[9] = Table V, dosage .30 ng/ml medium
[10] = Table VI, 15 ng/rat sc, mean of 9
[11] = Table VI, 50 ng/rat sc, mean of 9
[12] = Table VI, 150 ng/rat sc, mean of 9
[13] = Table VIII first section (time not given), 15 ng/rat sc, mean of 5-6
[14] = Table VIII first section (time not given), 50 ng/rat sc, mean of 5-6
[15] = Table VIII first section (time not given), 150 ng/rat sc, mean of 5-6
[16] = Table VIII, ±60 min after injection, 150 ng/rat sc, mean of 5-6

CCNC(=O)[C@@H]1CCCN1C(=O)[C@H](CCCNC(=N)N)NC(=O)[C@H](CC(C)C)NC(=O)[C@@H](Cc1cccnc1)NC(=O)[C@H](Cc1ccc(O)cc1)NC(=O)[C@H](CO)NC(=O)[C@H](Cc1c[nH]c2ccccc12)NC(=O)[C@H](Cc1c[nH]cn1)NC(=O)[C@@H]1CCC(=O)N1 [Peptide 21436, pyroGlu-His-Trp-Ser-Tyr-D-3-Pal-Leu-Arg-Pro-NHC2 H5]
Serum FSH ng/ml SEM ([1]; 50 ng/rat sc): 3471 ± 229 ng/mL | Serum LH ng/ml SEM ([1]; 50 ng/rat sc): 116 ± 20 ng/mL | Serum FSH ng/ml SEM ([1]; 150 ng/rat sc): 1458 ± 424 ng/mL | Serum LH ng/ml SEM ([1]; 150 ng/rat sc): 144 ± 37 ng/mL | FSH ng/ml Serum ± SEM at +120 min ([1]; 50 ng/rat sc): 4692 ± 393 ng/mL | LH ng/ml Serum ± SEM at +120 min ([1]; 50 ng/rat sc): 291 ± 11 ng/mL | FSH ng/ml Serum ± SEM at +120 min ([1]; 150 ng/rat sc): 4811 ± 782 ng/mL | LH ng/ml Serum ± SEM at +120 min ([1]; 150 ng/rat sc): 278 ± 14 ng/mL | +2 hrs LH ± SEM ng/ml serum [1]: 237 ± 52 ng/mL | FSH ± SEM ng/ml serum (+2 hrs) [1]: 2415 ± 361 ng/mL | +3 hrs LH ± SEM ng/ml serum [1]: 106 ± 13 ng/mL | FSH ± SEM ng/ml serum (+3 hrs) [1]: 2205 ± 298 ng/mL

CNC(=O)[C@@H]1CCCN1C(=O)[C@H](CCCNC(=N)N)NC(=O)[C@H](CC(C)C)NC(=O)[C@@H](Cc1cccnc1)NC(=O)[C@H](Cc1ccc(O)cc1)NC(=O)[C@H](CO)NC(=O)[C@H](Cc1c[nH]c2ccccc12)NC(=O)[C@H](Cc1c[nH]cn1)NC(=O)[C@@H]1CCC(=O)N1 [Peptide 21437, pryoGlu-His-Trp-Ser-Tyr-D-3-Pal-Leu-Arg-Pro-NHCH3]
Serum FSH ng/ml SEM ([1]; 50 ng/rat sc): 1707 ± 518 ng/mL | Serum LH ng/ml SEM ([1]; 50 ng/rat sc): 47 ± 8 ng/mL | Serum FSH ng/ml SEM ([1]; 150 ng/rat sc): 2799 ± 783 ng/mL | Serum LH ng/ml SEM ([1]; 150 ng/rat sc): 111 ± 26 ng/mL

LHRH: peptide hormone known as the leutinizing hormone releasing hormone, exists naturally in the hypothalamus
FSH released into medium (ng/ml) ± SEM [2, 3]: 638 ± 292 | LH ng/ml medium ± SEM [2, 3]: 52 ± 20 ng/mL | FSH released into medium (ng/ml) ± SEM [2, 4]: 266 ± 235 | LH ng/ml medium ± SEM [2, 4]: 214 ± 30 ng/mL | FSH released into medium (ng/ml) ± SEM [2, 5]: 4556 ± 752 | LH ng/ml medium ± SEM [2, 5]: 771 ± 162 ng/mL | FSH released into medium (ng/ml) ± SEM [2, 6]: 8063 ± 943 | LH ng/ml medium ± SEM [2, 6]: 1434 ± 156 ng/mL | FSH ng/ml medium ± SEM [2, 7]: 598 ± 137 ng/mL | LH ng/ml medium ± SEM [2, 7]: 33 ± 24 ng/mL | FSH ng/ml medium ± SEM [2, 8]: 794 ± 52 ng/mL | LH ng/ml medium ± SEM [2, 8]: 206 ± 42 ng/mL | FSH ng/ml medium ± SEM [2, 9]: 2709 ± 252 ng/mL | LH ng/ml medium ± SEM [2, 9]: 892 ± 92 ng/mL | Serum FSH ng/ml SEM ([1]; 50 ng/rat sc): 909 ± 118 ng/mL | Serum LH ng/ml SEM ([1]; 50 ng/rat sc): 5 ± 0.5 ng/mL | Serum FSH ng/ml SEM ([1]; 150 ng/rat sc): 1076 ± 185 ng/mL | Serum LH ng/ml SEM ([1]; 150 ng/rat sc): 17 ± 3 ng/mL | Serum FFSH ng/ml ± SEM [1, 10]: 475 ± 43 ng/mL | Serum LH ng/ml ± SEM [1, 10]: 1.3 ± 0.2 ng/mL | Serum FFSH ng/ml ± SEM [1, 11]: 572 ± 68 ng/mL | Serum LH ng/ml ± SEM [1, 11]: 3.2 ± 0.3 ng/mL | Serum FFSH ng/ml ± SEM [1, 12]: 839 ± 73 ng/mL | Serum LH ng/ml ± SEM [1, 12]: 12 ± 3 ng/mL | LH ng/ml Serum ± SEM ± 15 min ([1]; Table VII, dosage 100 mg/rat sc (so in the source), ± 15 min): 49 ± 10 ng/mL | LH ng/ml Serum ± SEM ± 60 min ([1]; Table VII, dosage 100 mg/rat sc (so in the source), ± 60 min): 5.5 ± 0.9 ng/mL | Serum FSH ng/ml ± SEM [1, 13]: 1147 ± 489 ng/mL | Serum LH ng/ml ± SEM [1, 13]: 21.0 ± 4.0 ng/mL | Serum FSH ng/ml ± SEM [1, 14]: 2228 ± 448 ng/mL | Serum LH ng/ml ± SEM [1, 14]: 53.9 ± 9.0 ng/mL | Serum FSH ng/ml ± SEM [1, 15]: 1536 ± 172 ng/mL | Serum LH ng/ml ± SEM [1, 15]: 62.0 ± 21.0 ng/mL | Serum FSH ng/ml ± SEM [1, 16]: 2448 ± 209 ng/mL | Serum LH ng/ml ± SEM [1, 16]: 39.0 ± 17 ng/mL | +2 hrs LH ± SEM ng/ml serum [1]: .18 ± 0.07 ng/mL | FSH ± SEM ng/ml serum (+2 hrs) [1]: 337 ± 20 ng/mL | +3 hrs LH ± SEM ng/ml serum [1]: 0.66 ± 0.46 ng/mL | FSH ± SEM ng/ml serum (+3 hrs) [1]: 487 ± 72 ng/mL | FSH released ([1]; dosage of 15 ng): 572 ± 68 ng | release of LH (in words) ([1]; dosage of 15 ng): inactive
